Data as given in patent US20030134859A1 (SANKYO COMPANY, LIMITED, priority 2000, published 2003).
Counter-ions that a name gives are not always drawn.

Columns and labels:
Format in all cases: cell-based
human PPAR γ 2 = biological target: T1, human PPAR γ 2 (Homo sapiens, UniProt P37231); assay: Inhibitory activity against PPAR γ transcription in the presence of agonist compound A, luciferase reporter; conditions: in the presence of 10 nM compound A (agonist); MG63 cells transfected with pSG5-hPPARg and pGV-P2-PPRE; 24 hr
T1 construct: expressed in transfected cells; host or cells: human osteosarcoma MG63, transiently co-transfected with pSG5-hPPARg and the reporter pGV-P2-PPRE
T1 sequence (P37231 1-505): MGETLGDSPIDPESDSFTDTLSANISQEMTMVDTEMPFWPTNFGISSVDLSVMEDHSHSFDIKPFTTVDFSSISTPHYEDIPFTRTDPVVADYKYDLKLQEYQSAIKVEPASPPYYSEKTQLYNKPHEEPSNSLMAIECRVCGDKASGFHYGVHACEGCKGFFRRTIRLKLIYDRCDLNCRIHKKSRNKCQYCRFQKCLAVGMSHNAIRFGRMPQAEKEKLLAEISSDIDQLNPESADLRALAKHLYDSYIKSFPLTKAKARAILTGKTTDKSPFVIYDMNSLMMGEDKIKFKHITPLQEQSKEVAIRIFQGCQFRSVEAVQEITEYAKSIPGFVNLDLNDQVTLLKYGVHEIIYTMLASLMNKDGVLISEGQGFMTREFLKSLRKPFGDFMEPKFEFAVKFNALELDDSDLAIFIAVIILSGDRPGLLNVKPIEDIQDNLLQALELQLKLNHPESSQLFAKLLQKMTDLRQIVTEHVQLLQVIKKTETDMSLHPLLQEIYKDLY
From the text: The primers of the polymerase chain reaction (hereinafter “PCR”) were designed according to the gene sequence of human PPAR γ 2 (GenBANK accession No. D83233). […] For this, 2 kinds of polynucleotides shown in the sequence numbers 1 and 2 in the sequence table described below (hereinafter “S1” and “AS1”, respectively) were used as PCR primers.
In order to determine transcriptional activity via PPAR γ, 2 kinds of polynucleotides represented in sequence numbers 3 and 4 in the sequence table described below (hereinafter “S2” and “AS2”, respectively) were used for construction of the reporter plasmid having PPAR responsive element. The DNA fragment inserted was designed based on the gene sequence in the promoter region of rat acylCo-A oxidase (J. D. Tugwood, EMBO J., 11 (2), pp433-439 (1992)). For insertion of the DNA fragment into the reporter plasmid pGV-P2 (TOYO INK MFG CO., LTD), a NheI site and an XhoI site were added to the S2 and AS2, respectively.
Using cDNA library (Clontech) derived from human adipose tissue as a template, DNA oligomers S1 and AS1 that were synthesized in the procedure 1 as primers and Ex-Taq™ (TAKARA BIO INC.) as a thermostable DNA polymerase-PCR was carried out. […] Each cycle consisted of incubation at 94° C. for 1 min for denaturation of the template, then at 55° C. for 30 sec for annealing of DNA oligomers the PCR primer, and then at 72° C. for 30 sec for extension of the chain. The obtained DNA fragments with approximately 1500 base pairs were digested at the Bgl II sites and were inserted into BamHI sites of pSG5. Thus a human PPAR γ expression plasmid named pSG5-hPPAR g was obtained.
Vector pGV-P2 digestion products was prepared by digestion using the restriction enzymes, NheI and XhoI, and purified by 1.0% agarose-gel electrophoresis. The DNA oligomers, S2 and AS2 obtained in Procedure 2, were mixed together and were incubated in a hot bath at 94° C. for 1 min. After the annealing was partially broken, they were further incubated at 25° C. for 1 hr. Thus double-stranded DNA with annealing of S2 and AS2 was formed. Then, the terminus of the double-stranded DNA with annealing of S2 and AS2 was phosphorylated with DNA polynucleotide kinase (TOYOBO CO., LTD). After that, it was ligated to the pGV-P2 digestion products which were prepared previously using the NheI site and XhoI site. Thus the reporter plasmid pGV-P2-PPRE was obtained.
Using the plasmid obtained by the procedures 3 and 4, transformation of Escherichia coli HB-101 strain was carried out by conventional methods. HB-101 strain having the plasmid was incubated in L-broth medium (containing 10 g of trypton (Difco), 5 g of yeast extract (Difco), 5 g of sodium chloride in 1 L of aqueous solution) containing 100 μg/ml of ampicillin at 37° C. for 17 hrs. Then, each plasmid was purified by the alkaline-SDS method and employed for the gene transfection to mammalian cells. After mixing the pSG5-hPPARg, PGV-P2-PPRE and LipofectAMINE reagent (GIBCO BRL), the human osteosarcoma MG63 was transiently transfected. Then the cells were recovered. The recovered cells were plated on a 96-well plate so as to be 30,000 cells/well and cultured in a CO2 incubator (NAPCO) at 37° C. for 24 hr under the condition of 5% CO2, 95%-RH.
Ten (10) nM of the following compound A (although compound A is described here as a representative compound, the compound is not limited to compound A, if the compound exerts a PPAR r agonistic activity) and various concentrations of the test compound were added to culturing medium of the cells prepared in the Procedure 5.

[1] = test system: Mouse preadipocyte strain 3T3-L1; assay: Inhibition of differentiation as an indication of acetic acid uptake; conditions: Mus musculus, 3T3-L1, 0.1 μM test substance, control (0.01% dimethylsulfoxide) = 100%, read-out: Rate of Uptake (%) of [2-14C] acetic acid
Procedure: As the basal medium, Dulbecco's modified Eagle's (DEM) medium (NISSUI PHARMACEUTICAL CO., LTD) was used. […] All culturing in the present Test Example was carried out in a CO2 incubator at 37° C. and 10% CO2 concentration.
The successively cultured 3T3-L1 cells were inoculated in a Biocoat Collagen I 96-well white/clear plate (Becton Dickinson and Co.) at a concentration of 4,900 cells/well, and were cultured in the basal medium containing added 10% (v/v) inactivated bovine fetal serum (FBS) for 10 days.
The medium was replaced with a differentiation-inducing medium in which inactivated FBS (final concentration: 5%), insulin (Sigma-Aldrich Japan K. K., final concentration: 10 μg/mL), isobutyl methyl xanthine (Aldrich K. K., final concentration: 0.5 mM) and dexamethazone (final concentration: 1 μM) were added so as to be at the final concentrations indicated in the parentheses. The cells were divided in the following 2 groups and were cultured for 4 days; 1) in the presence of 0.01% (v/v) dimethylsulfoxide, and 2) in the presence of 0.01% (v/v) dimethylsulfoxide in which was dissolved 1 mM of the test substance (final concentration of 0.1 μM). Then, the medium was further replaced with a maintenance medium in which inactivated […] and insulin were added to the base medium so as to be at final concentrations of 5% and 100 ng/mL, respectively, and the cells were cultured for 2 days.
The inhibitory activity of the test compound against cell differentiation was assayed by using uptake of [2-^14C] acetic acid into the cultured cells as an indicator. […] Then the cells were further incubated with the newly prepared medium for 1 hr. After washing the well with PBS (−), the cells were dried. To these wells, 100 μL/well of a scintillation cocktail (Hewlett-Packard Co., MICROSCINT-20 PACKARD) were added and their radioactivities were determined with a Packard TopCont microplate Scintillation Counter (Hewlett-Packard Co., PACKARD) and the uptake level of [2-^14C] acetic acid into the cultured cell was calculated.
On the basis of the calculated uptake level of [2-^14C] acetic acid into the cultured cells, the relative uptake level of [2-^14C] acetic acid in the group treated with the test compound was calculated against the uptake level of [2-^14C] acetic acid in the presence of 0.01% (v/v) dimethylsulfoxide solution described in 1) (100%).
Value=Uptake Level (cpm) of [2-^14C] Acetic Acid in the Presence of the Test Substance
Control=Uptake Level (cpm) of [2-^14C] Acetic Acid in the Control Group (0.01% dimethylsulfoxide)
Uptake Rate (%) of [2-^14C] Acetic Acid=100×[Value]/[Control]

Rat white adipocytes = assay: Inhibition of the differentiation of adipocytes (Oil Red O); conditions: Rattus norvegicus, Adipocyte, 120 h, 100 nM test compound; 5 days; Oil Red O ABS550; control = 100%, blank = 0%; Table 3; read-out: Rate of Differentiation (%)
How it was run: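 Rat white preadipocytes, 5,000 cells/well, given differentiation medium with compound at 100 nM final (0.1% DMSO) for 5 days at 37 °C. Lipid stained with Oil Red O, eluted in DMSO, read at 550 nm; differentiation % relative to DMSO control (100%) and blank (0%).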

Cc1nccc(-c2cccc(NC(=O)c3cc([N+](=O)[O-])ccc3Cl)c2)n1 [Example 112, N-[3-(2-Methylpyrimidin-4-yl)phenyl]-(2-chloro-5-nitrophenyl)carboxamide]
IC50 (human PPAR γ 2): 0.014 µM | activity at 0.1 µM [1]: 82.3%

CCS(=O)(=O)Nc1ccc(NC(=O)c2cc([N+](=O)[O-])ccc2Cl)cc1 [Example 129, N-(4-Ethanesulfonylaminophenyl)-(2-chloro-5-nitrophenyl)carboxamide]
IC50 (human PPAR γ 2): 0.026 µM

O=C(Nc1ccc(C(=O)N2CCOCC2)cc1)c1cc([N+](=O)[O-])ccc1Cl [Example 158, N-[4-(Morpholin-4-ylcarbonyl)phenyl]-(2-chloro-5-nitrophenyl)carboxamide]
IC50 (human PPAR γ 2): 0.082 µM

CCCCCCCCN(CCCCC)c1ccc(-c2ccc(NC(=O)c3cc([N+](=O)[O-])ccc3Cl)cc2)cc1 [Example 221, N-[4-[4-(N-Octyl-N-pentylamino)phenyl]phenyl]-(2-chloro-5-nitrophenyl)carboxamide mono-hydrochloride]
IC50 (human PPAR γ 2): 0.034 µM | activity at 0.1 µM (Rat white adipocytes): 40.2%

O=C(Nc1ccc(N2CCN(C(=O)c3cccnc3)CC2)cc1)c1cc([N+](=O)[O-])ccc1Cl [Example 227, N-[4-[4-(Pyridin-3-ylcarbonyl)piperazin-1-yl]phenyl]-2-(chloro-5-nitrophenyl)carboxamide]
IC50 (human PPAR γ 2): 0.081 µM | activity at 0.1 µM (Rat white adipocytes): 39.7%

CC(O)c1ccc(NC(=O)c2cc([N+](=O)[O-])ccc2Cl)cc1 (stereo not shown) [Example 238, N-[4-(1-Hydroxyethyl)phenyl]-(2-chloro-5-nitrophenyl)carboxamide]
IC50 (human PPAR γ 2): 0.0093 µM | activity at 0.1 µM (Rat white adipocytes): 64%

O=C(Nc1ccc(-c2ccc(NC(=S)Nc3cccnc3)cc2)cc1)c1cc([N+](=O)[O-])ccc1Cl [Example 256, N-[4-[4-[(Pyridin-3-yl)aminothiocarbonylamino]phenyl]phenyl)-(2-chloro-5-nitrophenyl)carboxamide]
IC50 (human PPAR γ 2): 0.012 µM | activity at 0.1 µM (Rat white adipocytes): 38.2%

O=C(NCCc1ccc(NC(=O)c2cc([N+](=O)[O-])ccc2Cl)cc1)Nc1ccccc1 [Example 268, N-[4-(2-Phenylaminocarbonylaminoethyl)phenyl]-(2-chloro-5-nitrophenyl)carboxamide]
IC50 (human PPAR γ 2): 0.025 µM | activity at 0.1 µM (Rat white adipocytes): 54.8%

O=C(Nc1ccc(CCNC(=S)Nc2ccccc2)cc1)c1cc([N+](=O)[O-])ccc1Cl [Example 269, N-[4-(2-Phenylaminothiocarbonylaminoethyl)phenyl]-(2-chloro-5-nitrophenyl)carboxamide]
IC50 (human PPAR γ 2): 0.03 µM | activity at 0.1 µM (Rat white adipocytes): 52.9%
